Data on 28 molecules can be found in patent publication US20070027150A1 (priority 2005, published 2007).

The first experiment addresses His-tagged N-terminal ATP binding domain (amino acid residues 9-236) of HSP90α (Homo sapiens, UniProt P07900). Kind of experiment: HSP90 inhibitor binding potency: TRF competition binding assay. To be noted: Table I; read-out: Hsp90 IC50 Range. How it is done:
HSP90 Inhibitor Binding Potency: TRF Binding Assay
In this example, the binding potency of HSP90 inhibitors as measured by a TRF binding assay is described.
TRF competition binding assays were performed to determine the binding potency (IC50 values) of HSP90 inhibitors. Purified His-tagged N-terminal ATP binding domain (amino acid residues 9-236) of HSP90α (HSP90α GeneID: 3320; mRNA Sequence NM_005348) was incubated for two hours at room temperature in binding buffer (50 mM HEPES, 6 mM MgCl2, 20 mM KCl and 0.1% BSA) with biotinylated radicicol and progressively higher concentrations of the competing compounds. A fraction of the mixture was transferred to capture plates (coated with streptavidin) and incubated for one hour at room temperature. After washing with DELFIA wash buffer, europium-labeled anti-his antibody was added and incubated for two hours at room temperature, followed by washing with DELFIA buffer. DELFIA enhancement solution was then added. After gentle shaking for 10 minutes, the plates were read in VICTOR for europium counts.
For `Cc1nc(N)nc2c1C(=O)CC(c1ccccc1-c1cccc(F)c1F)C2` (stereo not shown) [Compound 83, 2-amino-7-(2′,3′-difluoro-1,1′-biphenyl-2-yl)-4-methyl-7,8-dihydroquinazolin-5(6H)-one], the IC50 is below 1000 nM. For the molecule `Cc1cccc(-c2ccccc2C2CC(=O)c3c(C)nc(N)nc3C2)c1F` (stereo not shown) [Compound 126, 2-amino-7-(2′-fluoro-3′-methyl-1,1′-biphenyl-2-yl)-4-methyl-7,8-dihydroquinazolin-5(6H)-one], the IC50 is below 1000 nM.

On to `Cc1nc(N)nc2c1C(=O)CC(c1ccc(F)cc1Br)C2` (stereo not shown) [Compound 16, 2-amino-7-(2-bromo-4-fluoro-phenyl)-4-methyl-7,8-dihydro-6H-quinazolin-5-one], for which the IC50 was below 1000 nM. The same measure, in the same setting: in the case of `COc1cccc(Cl)c1C1CC(=O)c2c(C)nc(N)nc2C1` (stereo not shown) [Compound 5, 2-amino-7-(2-chloro-6-methoxy-phenyl)-4-methyl-7,8-dihydro-6H-quinazolin-5-one] it was 1000 to 10000 nM; in that of `COc1ccc(-c2cccnc2)c(C2CC(=O)c3c(C)nc(N)nc3C2)c1` (stereo not shown) [Compound 71, 2-amino-7-(5-methoxy-2-pyridin-3-ylphenyl)-4-methyl-7,8-dihydroquinazolin-5(6H)-one], below 1000 nM; in that of `Cc1nc(N)nc2c1C(=O)CC(c1cccc(-c3ccccc3F)c1)C2` (stereo not shown) [Compound 58], above 10000 nM. Still for that read-out and setting: in the case of `Cc1nc(N)nc2c1C(=O)CC(c1ccccc1-c1cccnc1Cl)C2` (stereo not shown) [Compound 80, 2-amino-7-[2-(2-chloropyridin-3-yl)phenyl]-4-methyl-7,8-dihydroquinazolin-5(6H)-one] it was below 1000 nM. On the same count and under the same terms, the same measure for `Cc1nc(N)nc2c1C(=O)CC(c1cccnc1)C2` (stereo not shown) [Compound 160, 2-amino-4-methyl-7-pyridin-3-yl-7,8-dihydroquinazolin-5(6H)-one]: above 10000 nM.

`Cc1nc(N)nc2c1C(=O)CC(c1ccccc1-c1ccc(F)cc1)C2` (stereo not shown) [Compound 53, 2-amino-7-(4′-fluoro-1,1′-biphenyl-2-yl)-4-methyl-7,8-dihydroquinazolin-5(6H)-one]: the IC50 is below 1000 nM.

Turning to `COc1cncc(-c2ccccc2C2CC(=O)c3c(C)nc(N)nc3C2)c1` (stereo not shown) [Compound 73, 2-amino-7-[2-(5-methoxypyridin-3-yl)phenyl]-4-methyl-7,8-dihydroquinazolin-5(6H)-one], the IC50 fell in the range of 1000 to 10000 nM. As to `Cc1nc(N)nc2c1C(=O)CC(c1ccccc1Br)C2` (stereo not shown) [Compound 8, 2-amino-7-(2-bromophenyl)-4-methyl-7,8-dihydroquinazolin-5(6H)-one], the IC50 fell in the range of 1000 to 10000 nM.

With `Cc1ccc(-c2ccccc2C2CC(=O)c3c(C)nc(N)nc3C2)c(C)n1` (stereo not shown) [Compound 66, 2-amino-7-[2-(2,6-dimethylpyridin-3-yl)phenyl]-4-methyl-7,8-dihydroquinazolin-5(6H)-one], the IC50 lay within 1000 to 10000 nM. Take `Cc1nc(N)nc2c1C(=O)CC(c1ccccc1-c1cncnc1)C2` (stereo not shown) [Compound 42, 2-amino-4-methyl-7-(2-pyrimidin-5-ylphenyl)-7,8-dihydroquinazolin-5(6H)-one]: the IC50 is below 1000 nM. With `COc1cccc(-c2ccccc2C2CC(=O)c3c(C)nc(N)nc3C2)c1` (stereo not shown) [Compound 69, 2-amino-7-(3′-methoxy-1,1′-biphenyl-2-yl)-4-methyl-7,8-dihydroquinazolin-5(6H)-one], the IC50 is 1000 to 10000 nM.

Still in this experiment, the particulars now being: Table II; read-out: Hsp90 IC50 Range.
`Cc1nc(N)nc2c1C(=O)CC(c1ccc(F)cc1-c1cnc(N)nc1)C2` (stereo not shown) [Compound 269, 2-amino-7-[2-(2-amino-pyrimidin-5-yl)-4-fluoro-phenyl]-4-methyl-7,8-dihydro-6H-quinazolin-5-one]: the IC50 lay within 1000 to 10000 nM. As to `COc1cccc(-c2scnc2C2CC(=O)c3c(C)nc(N)nc3C2)n1` (stereo not shown) [Compound 291, 2-amino-7-[5-(6-methoxy-pyridin-2-yl)-thiazol-4-yl]-4-methyl-7,8-dihydro-6H-quinazolin-5-one], the IC50 was below 1000 nM. As for `COc1ccccc1Oc1cc(F)ccc1C1CC(=O)c2c(C)nc(N)nc2C1` (stereo not shown) [Compound 290, 2-amino-7-[4-fluoro-2-(2-methoxy-phenoxy)-phenyl]-4-methyl-7,8-dihydro-6H-quinazolin-5-one], the IC50 was in the range of 1000 to 10000 nM. Consider `COc1ccc(C(F)(F)F)cc1-n1ccnc1C1CC(=O)c2c(C)nc(N)nc2C1` (stereo not shown) [Compound 199, 2-amino-7-[1-(2-methoxy-5-trifluoromethyl-phenyl)-1H-imidazol-2-yl]-4-methyl-7,8-dihydro-6H-quinazolin-5-one], for which the IC50 is 1000 to 10000 nM. Consider `Cc1nc(N)nc2c1C(=O)CC(c1ccc(F)cc1-c1nccnc1F)C2` (stereo not shown) [Compound 231, 2-amino-7-[4-fluoro-2-(3-fluoro-pyrazin-2-yl)-phenyl]-4-methyl-7,8-dihydro-6H-quinazolin-5-one], for which the IC50 is below 1000 nM.

Take `COc1ncc(-c2cc(F)ccc2[C@@H]2CC(=O)c3c(C)nc(N)nc3C2)nc1OC` [Compound 323, (S)-2-amino-7-[2-(5,6-dimethoxy-pyrazin-2-yl)-4-fluoro-phenyl]-4-methyl-7,8-dihydro-6H-quinazolin-5-one]: the IC50 is below 1000 nM. As for `COc1ccc(-c2cncc(OC)n2)c(C2CC(=O)c3c(C)nc(N)nc3C2)c1` (stereo not shown) [Compound 254, 2-amino-7-[5-methoxy-2-(6-methoxy-pyrazin-2-yl)-phenyl]-4-methyl-7,8-dihydro-6H-quinazolin-5-one], the IC50 was below 1000 nM. Regarding `Cc1nc(N)nc2c1C(=O)CC(c1ccc(F)cc1OC1CCCC1)C2` (stereo not shown) [Compound 255, 2-amino-7-(2-cyclopentyloxy-4-fluoro-phenyl)-4-methyl-7,8-dihydro-6H-quinazolin-5-one], the IC50 was below 1000 nM.

`COc1ncncc1-c1cc(F)ccc1C1CC(=O)c2c(C)nc(N)nc2C1` (stereo not shown) [Compound 278, 2-amino-7-[4-fluoro-2-(4-methoxy-pyrimidin-5-yl)-phenyl]-4-methyl-7,8-dihydro-6H-quinazolin-5-one]: the IC50 was below 1000 nM. For the molecule `Cc1nc(N)nc2c1C(=O)CC(c1cc(F)ccc1-c1cncnc1)C2` (stereo not shown) [Compound 284, 2-amino-7-(5-fluoro-2-pyrimidin-5-yl-phenyl)-4-methyl-7,8-dihydro-6H-quinazolin-5-one], the IC50 is above 10000 nM. On the same count and under the same terms, the same measure for `COc1nc(-c2cc(F)ccc2C2CC(=O)c3c(C)nc(N)nc3C2)cnc1Cl` (stereo not shown) [Compound 334, 2-amino-7-[2-(5-chloro-6-methoxy-pyrazin-2-yl)-4-fluoro-phenyl]-4-methyl-7,8-dihydro-6H-quinazolin-5-one]: below 1000 nM. Same read-out and setting: the same measure for `COc1ccc(F)c(-c2cc(F)ccc2[C@@H]2CC(=O)c3c(C)nc(N)nc3C2)n1` [Compound 313, (S)-2-amino-7-[4-fluoro-2-(3-fluoro-6-methoxy-pyridin-2-yl)-phenyl]-4-methyl-7,8-dihydro-6H-quinazolin-5-one]: below 1000 nM; for `COc1cc(Cl)c(C)cc1-n1ccnc1C1CC(=O)c2c(C)nc(N)nc2C1` (stereo not shown) [Compound 330, 2-amino-7-[1-(4-chloro-2-methoxy-5-methyl-phenyl)-1H-imidazol-2-yl]-4-methyl-7,8-dihydro-6H-quinazolin-5-one]: 1000 to 10000 nM; for `COc1cccc(-n2ccnc2C2CC(=O)c3c(C)nc(N)nc3C2)n1` (stereo not shown) [Compound 193, 2-amino-7-[1-(6-methoxy-pyridin-2-yl)-1H-imidazol-2-yl]-4-methyl-7,8-dihydro-6H-quinazolin-5-one]: below 1000 nM.
